Measurements: patent US12590067B2, “Herbicidal cyclohexanedione derivatives” (SYNGENTA CROP PROTECTION AG, priority 2019, dated 2026)

How the values were obtained:
Test in all cases: Glasshouse herbicidal test, pre- and post-emergence, percentage damage to the plant
Assay type in all cases: in vivo
Avena fatua (AVEFA) = conditions: 250 g/h, evaluated after 13 days; for AVEFA POST percentage damage caused to the plant (five-point scale): post-emergence; for AVEFA PRE percentage damage caused to the plant (five-point scale): pre-emergence
Description: (§1) Seeds of a variety of test species are sown in standard soil in pots (Lolium perenne (LOLPE), Setaria faberi (SETFA), Alopecurus myosuroides (ALOMY), Echinochloa crus-galli (ECHCG), Avena fatua (AVEFA)). After cultivation for one day (pre-emergence) or after 8 days cultivation (post-emergence) under controlled conditions in a glasshouse (at 24/16° C., day/night; 14 hours light; 65% humidity), the plants are sprayed with an aqueous spray solution derived from the formulation of the technical active ingredient in acetone/water (50:50) solution containing 0.5% Tween 20 (polyoxyethelyene sorbitan monolaurate, CAS RN 9005-64-5). Compounds are applied at 250 g/h. The test plants are then grown in a glasshouse under controlled conditions in a glasshouse (at 24/16° C., day/night; 14 hours light; 65% humidity) and watered twice daily. After 13 days for pre and post-emergence, the test is evaluated for the percentage damage caused to the plant. The biological activities are shown in the following table on a five-point scale (5=80-100%; 4=60-79%; 3=40-59%; 2=20-39%; 1=0-19%).

Lolium perenne (LOLPE) = conditions: 250 g/h, evaluated after 13 days; for LOLPE POST percentage damage caused to the plant (five-point scale): post-emergence; for LOLPE PRE percentage damage caused to the plant (five-point scale): pre-emergence
Description: as §1

[1] = tested on: Echinochloa crus-galli (ECHCG); conditions: 250 g/h, evaluated after 13 days; for ECHCG POST percentage damage caused to the plant (five-point scale): post-emergence; for ECHCG PRE percentage damage caused to the plant (five-point scale): pre-emergence
Description: as §1

Setaria faberi (SETFA) = conditions: 250 g/h, evaluated after 13 days; for SETFA POST percentage damage caused to the plant (five-point scale): post-emergence; for SETFA PRE percentage damage caused to the plant (five-point scale): pre-emergence
Description: as §1

[2] = tested on: Alopecurus myosuroides (ALOMY); conditions: 250 g/h, evaluated after 13 days; for ALOMY POST percentage damage caused to the plant (five-point scale): post-emergence; for ALOMY PRE percentage damage caused to the plant (five-point scale): pre-emergence
Description: as §1

SMILES | AVEFA POST percentage damage caused to the plant (five-point scale) (Avena fatua (AVEFA)) | AVEFA PRE percentage damage caused to the plant (five-point scale) (Avena fatua (AVEFA)) | LOLPE POST percentage damage caused to the plant (five-point scale) (Lolium perenne (LOLPE)) | LOLPE PRE percentage damage caused to the plant (five-point scale) (Lolium perenne (LOLPE)) | ECHCG POST percentage damage caused to the plant (five-point scale) [1] | ECHCG PRE percentage damage caused to the plant (five-point scale) [1] | SETFA POST percentage damage caused to the plant (five-point scale) (Setaria faberi (SETFA)) | SETFA PRE percentage damage caused to the plant (five-point scale) (Setaria faberi (SETFA)) | ALOMY POST percentage damage caused to the plant (five-point scale) [2] | ALOMY PRE percentage damage caused to the plant (five-point scale) [2]
CC#Cc1cc(Cl)c(C2C(=O)CC3(CCN(C(=O)c4ccccc4)CC3)CC2=O)c(OC)c1 [Compound A3, 3-benzoyl-9-(2-chloro-6-methoxy-4-prop-1-ynyl-phenyl)-3-azaspiro[5.5]undecane-8,10-dione] | 5 (5=80-100%) | 5 (5=80-100%) | 5 (5=80-100%) | 5 (5=80-100%) | 5 (5=80-100%) | 5 (5=80-100%) | 5 (5=80-100%) | 5 (5=80-100%) | 5 (5=80-100%) | 5 (5=80-100%)
CC#Cc1cc(CC)c(C2C(=O)CC3(CCN(C(C)=O)CC3)CC2=O)c(CC)c1 [Compound A48] | 5 (5=80-100%) | 5 (5=80-100%) | 5 (5=80-100%) | 5 (5=80-100%) | 5 (5=80-100%) | 4 (4=60-79%) | 5 (5=80-100%) | 5 (5=80-100%) | 5 (5=80-100%) | 5 (5=80-100%)
CC#Cc1cc(Cl)c(C2C(=O)CC3(CCN(C(=O)CC#N)CC3)CC2=O)c(OC)c1 [Compound A12] | 5 (5=80-100%) | 5 (5=80-100%) | 5 (5=80-100%) | 5 (5=80-100%) | 5 (5=80-100%) | 5 (5=80-100%) | 5 (5=80-100%) | 5 (5=80-100%) | 5 (5=80-100%) | 5 (5=80-100%)
CC#Cc1cc(C)c(C2C(=O)CC3(CCN(C(C)=O)CC3)CC2=O)c(Cl)c1 [Compound A55] | 5 (5=80-100%) | 5 (5=80-100%) | 5 (5=80-100%) | 5 (5=80-100%) | 5 (5=80-100%) | 5 (5=80-100%) | 5 (5=80-100%) | 5 (5=80-100%) | 5 (5=80-100%) | 5 (5=80-100%)
CC#Cc1cc(Cl)c(C2C(=O)CC3(CCN(C(=O)NC(=O)c4ccccn4)CC3)CC2=O)c(OC)c1 [Compound A11] | 5 (5=80-100%) | 3 (3=40-59%) | 5 (5=80-100%) | 5 (5=80-100%) | 5 (5=80-100%) | 5 (5=80-100%) | 5 (5=80-100%) | 5 (5=80-100%) | 5 (5=80-100%) | 5 (5=80-100%)
CC#Cc1cc(Cl)c(C2C(=O)CC3(CCN(S(=O)(=O)CC)CC3)CC2=O)c(OC)c1 [Compound A2] | 5 (5=80-100%) | 5 (5=80-100%) | 5 (5=80-100%) | 5 (5=80-100%) | 5 (5=80-100%) | 5 (5=80-100%) | 5 (5=80-100%) | 5 (5=80-100%) | 5 (5=80-100%) | 5 (5=80-100%)
Cc1cc(-c2ccc(C#N)cn2)cc(Cl)c1C1C(=O)CC2(CCN(C(=O)C3CC3)CC2)CC1=O [Compound A57] | 5 (5=80-100%) | 5 (5=80-100%) | 5 (5=80-100%) | 5 (5=80-100%) | 5 (5=80-100%) | 5 (5=80-100%) | 5 (5=80-100%) | 5 (5=80-100%) | 5 (5=80-100%) | 5 (5=80-100%)
CC#Cc1cc(Cl)c(C2C(=O)CC3(CCN(C(=O)C(C)(C)C)CC3)CC2=O)c(OC)c1 [Compound A10] | 5 (5=80-100%) | 5 (5=80-100%) | 5 (5=80-100%) | 5 (5=80-100%) | 5 (5=80-100%) | 5 (5=80-100%) | 5 (5=80-100%) | 5 (5=80-100%) | 5 (5=80-100%) | 5 (5=80-100%)
